Results: US20200179392A1, “Idelalisib for Treating Proliferative Vitreoretinopathy and Abnormal Intraocular Neovascularization” (priority 2016, published 2020)

Tested on: RPEM cells
Assay: Cell apoptosis (survival) assay, RPEM cells with vitreous
Type: cell-based, human
Details: idelalisib 5 μM, 48 hours, Annexin V/PI FACS
Description: 3B. After RPEM cells reached 80% confluence in 60-mm dishes, the cultured medium was changed to either 3 ml DMEM/F12 or RV supplemented with idelalisib (5 μM) or its vehicle (0.1% dimethyl sulfoxide: DMSO). 48 hours later, the detached cells were washed with phosphate-buffer saline (PBS) and stained with fluorescein isothiocyanate (FITC)-conjugated Annexin V and propidium iodide (PI) and then analyzed by fluorescence-activated cell sorting (FACS). A representative raw data of three experiments below the bar graphs is shown. RPEM cells were seeded into 6 cm-dishes at a density of 2×10^5 cells per dish in DMEM/F12+10% FBS. Following attachment, the cells were treated with DMEM/F12 or RV (1:2 dilution in DMEM/F12) with or without idelalisib ([…]). On day 3, the cells were stained with fluorescein isothiocyanate (FITC)-conjugated annexin V and propidium iodide (PI) following the manufacturer's instructions (BD Biosciences, Palo Alto, Calif.). The cells were analyzed by flow cytometry in a Coulter Beckman XL instrument. At least three independent experiments were performed^24, 44.

Which “effect on vitreous-induced survival of RPEM cells” value does the source give for CC[C@H](Nc1ncnc2[nH]cnc12)c1nc2cccc(F)c2c(=O)n1-c1ccccc1 [idelalisib] here?
Its value is “prevented”.
